Test [1] deals with cancer cells. Description: MTT anti-proliferative test of des-NO-releasing compounds. The test is classed as cell-based, human. Conditions: at concentrations as high as 50 µM. Here is the method:
(§1) In addition, the morphological changes in 12b-treated cancer cell lines at concentrations of 6.25 and 12.50 µM are shown in Figure 6.
(§2) According to the procedures of Skehan et al. (with minor modifications), the cancer or normal cells were seeded in a 96-well plate (100 µL/well). After overnight incubation at 37 °C and 5% CO2, the cells were incubated with 50 µM of each tested compound or DMSO (0.5% v/v). After 48 h of incubation, MTT (3-(4,5-dimethylthiazoyl)-2,5-diphenyl-tetrazolium bromide) 5 mg/mL Phosphate-Buffered Saline (PBS) was added, and the plate was incubated for 4 h. After that, acidified sodium dodecyl sulfate (SDS) solution (10% SDS containing 0.01N HCl in 1× PBS) was used to solubilize formazan crystals. The absorbance was measured after 14 h of incubation at λ570–630 nm by a Biotek plate reader (Gen5™).
For orientation: Tetrazolium assays rely on reduction of a dye to a coloured formazan, in cell work by metabolically active cells.

Test [2] concerns A2780CP. Description: MTT cell viability assay. The test is classed as cell-based. Conditions: Homo sapiens, A2780C/P, Ovarian, 48 h, ± SD of triplicates. Here is the method:
as §1, §2

Test [3] has as its system MDA-MB-231. The test can be described thus: MTT cell viability assay. The test is classed as cell-based. Conditions: Homo sapiens, Breast, 48 h, ± SD of triplicates. Here is the method: as §1, §2
Test [4] has as its system HepG2. The test can be described thus: MTT cell viability assay. The test is classed as cell-based. Conditions: Homo sapiens, Liver, 48 h, ± SD of triplicates. Here is the method:
as §1, §2

Test [5] relates to A2780. Description: MTT cell viability assay. The test is classed as cell-based. To be noted: Homo sapiens, Ovarian, 48 h, ± SD of triplicates. Here is the method:
as §1, §2

Test [6] deals with SKOV-3. The test can be described thus: MTT cell viability assay. The test is classed as cell-based. To be noted: Homo sapiens, SK-OV-3, Ovarian, 48 h, ± SD of triplicates. Here is the method: as §1, §2
Test [7] relates to MCF-7. The test can be described thus: MTT cell viability assay. The test is classed as cell-based. Conditions: Homo sapiens, MCF7, Breast, 48 h, ± SD of triplicates. Here is the method:
as §1, §2

The subject of test [8] is HT-29. The test can be described thus: MTT cell viability assay. To be noted: Homo sapiens, Colon, 48 h, ± SD of triplicates. The test is classed as cell-based. Here is the method: as §1, §2

The term IC50 denotes the concentration needed to halve the response being measured. A higher IC50 goes with weaker potency.

As to `Nc1ccc(Nc2nc(C(F)(F)F)nc3c2cnn3-c2ccc(Br)cc2)cc1` [15a, N1-(1-(4-bromophenyl)-6-(trifluoromethyl)-1H-pyrazolo[3,4-d]pyrimidin-4-yl)benzene-1,4-diamine], in test [1], the “inhibition of the proliferation of cancer cells” value is listed as “did not inhibit the proliferation of cancer cells”.

As to `Cc1nn(-c2ccc(Br)cc2)c2nc(C(F)(F)F)nc(Nc3ccc(N)cc3)c12` [15b, N1-(1-(4-bromophenyl)-3-methyl-6-(trifluoromethyl)-1H-pyrazolo[3,4-d]pyrimidin-4-yl)benzene-1,4-diamine], in test [1], the “inhibition of the proliferation of cancer cells” value is listed as “did not inhibit the proliferation of cancer cells”.

On to `CNC(=O)c1cc(Oc2ccc(NC(=O)Nc3ccc(Cl)c(C(F)(F)F)c3)cc2)ccn1` [Sorafenib, sorafenib, reference compound], for which the IC50 is 15.2 ± 0.1 µM in test [2]; 16.6 ± 0.3 µM in test [3]; 14 ± 0.4 µM in test [4]; 10.5 ± 0.5 µM in test [5]; 16.9 ± 0.2 µM in test [6]; 5.1 ± 0.4 µM in test [7]. The molecule further registered a concentration for half-maximal inhibition (IC50) in test [8] of 11 ± 0.2 µM.

These data come from PMC8880564, “Design, Synthesis, and Biological Evaluation of a Novel VEGFR-2 Inhibitor Based on a 1,2,5-Oxadiazole-2-Oxide Scaffold with MAPK Signaling Pathway Inhibition” (Pharmaceuticals, 2022).
